Read-outs that look alike come from different tables or passages of the source.
How the values were obtained:
[1] = system: PC-3; assay: NCI growth inhibition and cytotoxicity screen, Prostate Cancer panel; conditions: Homo sapiens
[2] = system: NCI/ADR-RES; assay: NCI growth inhibition and cytotoxicity screen, Ovarian Cancer panel; conditions: Homo sapiens
[3] = system: T-47D; assay: NCI growth inhibition and cytotoxicity screen, Breast Cancer panel; conditions: Homo sapiens, T47D
[4] = system: OVCAR-3; assay: cells; conditions: Homo sapiens
[5] = system: RXF 393; assay: NCI growth inhibition and cytotoxicity screen, Renal Cancer panel; conditions: Homo sapiens
[6] = system: COLO 205; assay: NCI growth inhibition and cytotoxicity screen, Colon Cancer panel; conditions: Homo sapiens, COLO 205, read-out: LC50
[7] = system: full panel of 60 different cancer cell lines; assay: NCI five dose screen, full panel summary; assay type: cell-based, human; conditions: for GI50: Homo sapiens
[8] = system: HS 578T; assay: NCI growth inhibition and cytotoxicity screen, Breast Cancer panel; conditions: Homo sapiens
[9] = system: MCF7; assay: as above; conditions: Homo sapiens
[10] = system: SK-MEL-5; assay: NCI growth inhibition and cytotoxicity screen, Melanoma panel; conditions: Homo sapiens
[11] = system: NCI-H522; assay: NCI growth inhibition and cytotoxicity screen, Lung Cancer panel; assay type: cell-based; conditions: Homo sapiens, Table 2, cell line NCI-H522 (Lung Cancer)
[12] = system: CCRF-CEM; assay: NCI growth inhibition and cytotoxicity screen, Leukemia panel; conditions: Homo sapiens
[13] = system: NCI-H23; assay: NCI growth inhibition and cytotoxicity screen, Lung Cancer panel; conditions: Homo sapiens
[14] = system: MDA-MB-435; assay: NCI growth inhibition and cytotoxicity screen, Melanoma panel; conditions: Homo sapiens
[15] = system: SNB-19; assay: NCI growth inhibition and cytotoxicity screen, CNS Cancer panel; conditions: Homo sapiens
[16] = system: BT-549; assay: NCI growth inhibition and cytotoxicity screen, Breast Cancer panel; conditions: Homo sapiens
[17] = system: HCC-2998; assay: NCI growth inhibition and cytotoxicity screen, Colon Cancer panel; conditions: Homo sapiens
[18] = system: MOLT-4; assay: NCI growth inhibition and cytotoxicity screen, Leukemia panel; conditions: Homo sapiens
[19] = system: NCI-H322M; assay: NCI growth inhibition and cytotoxicity screen, Lung Cancer panel; conditions: Homo sapiens
[20] = system: SF-268; assay: NCI growth inhibition and cytotoxicity screen, CNS Cancer panel; conditions: Homo sapiens
[21] = system: UACC-257; assay: NCI growth inhibition and cytotoxicity screen, Melanoma panel; conditions: Homo sapiens, UACC-257, read-out: LC50
[22] = system: ACHN; assay: NCI growth inhibition and cytotoxicity screen, Renal Cancer panel; conditions: Homo sapiens
[23] = system: HCT-116; assay: NCI growth inhibition and cytotoxicity screen, Colon Cancer panel; conditions: Homo sapiens
[24] = system: MDA-MB-468; assay: cells; conditions: Homo sapiens
[25] = system: SR; assay: NCI growth inhibition and cytotoxicity screen, Leukemia panel; conditions: Homo sapiens
[26] = system: SK-OV-3; assay: NCI growth inhibition and cytotoxicity screen, Ovarian Cancer panel; conditions: Homo sapiens
[27] = system: KM12; assay: NCI growth inhibition and cytotoxicity screen, Colon Cancer panel; conditions: Homo sapiens
[28] = system: DU-145; assay: NCI growth inhibition and cytotoxicity screen, Prostate Cancer panel; conditions: Homo sapiens
[29] = system: IGROV1; assay: NCI growth inhibition and cytotoxicity screen, Ovarian Cancer panel; conditions: Homo sapiens

COc1cc(/C(C#N)=C/c2cnc3ccccc3c2)cc(OC)c1OC [PNR-5-10, (Z)-3-(quinolin-3-yl)-2-(3,4,5-trimethoxyphenyl)acrylonitrile]
GI50 ([1]; PC-3): 1080 nM | CC50 ([1]; PC-3, read-out: LC50): > 100000 nM | GI50 [2]: 343 nM | CC50 ([2]; read-out: LC50): > 100000 nM | GI50 [3]: 9540 nM | CC50 ([3]; read-out: LC50): > 100000 nM | GI50 ([4]; OVCAR-3): 263 nM | CC50 ([4]; OVCAR-3, read-out: LC50): > 100000 nM | GI50 ([5]; RXF 393): 579 nM | CC50 ([5]; RXF 393, read-out: LC50): > 100000 nM | CC50 [6]: 9440 nM | GI50 ([7]; range over the potently inhibited cell lines, read-out: GI50 ranging (potently inhibited cancer cell lines)): 227 to 911 nM | GI50 ([7]; read-out: average GI50 value on all the cancer cell lines): 2490 nM | potent growth inhibition on % of the cancer cell lines ([7]; share of the cancer cell lines potently inhibited): 47% | GI50 [8]: 1310 nM | CC50 ([8]; read-out: LC50): > 100000 nM | GI50 ([9]; MCF7): 429 nM | CC50 ([9]; MCF7, read-out: LC50): > 100000 nM | GI50 ([10]; SK-MEL-5): 410 nM | CC50 ([10]; SK-MEL-5, read-out: LC50): > 100000 nM | GI50 [11]: 299 nM | CC50 ([11]; read-out: LC50 (the source's name)): > 100000 nM | GI50 [12]: 1380 nM | CC50 ([12]; read-out: LC50): > 100000 nM | GI50 ([13]; NCI-H23): 2930 nM | CC50 ([13]; NCI-H23, read-out: LC50): > 100000 nM | GI50 ([14]; MDA-MB-435): 227 nM | CC50 ([14]; MDA-MB-435, read-out: LC50): > 100000 nM | GI50 ([15]; SNB-19): 5230 nM | CC50 ([15]; SNB-19, read-out: LC50): > 100000 nM | GI50 ([16]; BT-549): 1430 nM | CC50 ([16]; BT-549, read-out: LC50): > 100000 nM | GI50 ([17]; HCC 2998): 2010 nM | CC50 ([17]; HCC 2998, read-out: LC50): > 100000 nM | GI50 ([18]; MOLT-4): 3200 nM | CC50 ([18]; MOLT-4, read-out: LC50): > 100000 nM | GI50 [19]: 27400 nM | CC50 ([19]; read-out: LC50): > 100000 nM | GI50 ([20]; SF-268): 9170 nM | CC50 ([20]; SF-268, read-out: LC50): > 100000 nM | CC50 [21]: > 100000 nM | GI50 [22]: 911 nM | CC50 ([22]; read-out: LC50): > 100000 nM | GI50 ([23]; HCT-116): 464 nM | CC50 ([23]; HCT-116, read-out: LC50): > 100000 nM | GI50 ([24]; MDA-MB-468): 870 nM | CC50 ([24]; MDA-MB-468, read-out: LC50): > 100000 nM | GI50 [25]: 569 nM | CC50 ([25]; read-out: LC50): > 100000 nM | GI50 ([26]; SK-OV-3): 1340 nM | CC50 ([26]; SK-OV-3, read-out: LC50): > 100000 nM | GI50 ([27]; KM12): 436 nM | CC50 ([27]; KM12, read-out: LC50): > 100000 nM | GI50 ([28]; DU-145): 1510 nM | CC50 ([28]; DU-145, read-out: LC50): > 100000 nM | GI50 ([29]; IGROV-1): 3150 nM | CC50 ([29]; IGROV-1, read-out: LC50): > 100000 nM

— US9884842B2, “Combretastatin analogs” (The Board of Trustees of the University of Arkansas, priority 2013, dated 2018)
